Source: PubChem BioAssay (NCI)
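Dose response: 5 concentrations. Exposure: 48 h. Format: 96-well plates. Endpoint: linear interpolation; highest concentration if not reached. TGI marks complete inhibition of growth.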

Tests used:
Assay in all cases: NCI-60 cell line screen, 48 h
[1] = test system: HL-60(TB) leukemia
[2] = test system: SK-MEL-2 melanoma
[3] = test system: MCF7 breast
[4] = test system: M14 melanoma
[5] = test system: T-47D breast
[6] = test system: NCI-H226 lung
[7] = test system: A549 NSCLC
[8] = test system: HOP-62 NSCLC
[9] = test system: EKVX NSCLC
[10] = test system: HT29 colon
[11] = test system: SF-268 CNS
[12] = test system: SW-620 colon
[13] = test system: HCC-2998 colon
[14] = test system: SF-295 CNS
[15] = test system: SNB-19 CNS
[16] = test system: OVCAR-5 ovarian
[17] = test system: SF-539 CNS
[18] = test system: CAKI-1 renal
[19] = test system: HCT-116 colon
[20] = test system: 786-0 renal
[21] = test system: MDA-MB-435
[22] = test system: CCRF-CEM leukemia
[23] = test system: NCI-H522 lung
[24] = test system: SN12C renal
[25] = test system: DU-145 prostate
[26] = test system: SR leukemia
[27] = test system: A498 renal
[28] = test system: TK-10 renal
[29] = test system: SK-OV-3 ovarian
[30] = test system: RXF 393 renal
[31] = test system: MDA-MB-231 breast
[32] = test system: SNB-75 CNS
[33] = test system: IGROV1 ovarian
[34] = test system: HOP-92 NSCLC
[35] = test system: RPMI-8226 leukemia
[36] = test system: UACC-62 melanoma
[37] = test system: UO-31 renal
[38] = test system: SK-MEL-5 melanoma
[39] = test system: NCI-H23 lung
[40] = test system: OVCAR-8 ovarian
[41] = test system: MDA-N
[42] = test system: MALME-3M melanoma
[43] = test system: ACHN renal
[44] = test system: SK-MEL-28 melanoma
[45] = test system: PC-3 prostate
[46] = test system: HS 578T breast
[47] = test system: NCI-H460 lung
[48] = test system: NCI/ADR-RES ovarian
[49] = test system: OVCAR-4 ovarian
[50] = test system: COLO 205 colon
[51] = test system: OVCAR-3 ovarian
[52] = test system: K-562 leukemia
[53] = test system: UACC-257 melanoma
[54] = test system: U251 CNS
[55] = test system: LOX IMVI melanoma
[56] = test system: HCT-15 colon
[57] = test system: MOLT-4 leukemia
[58] = test system: KM12 colon
[59] = test system: BT-549 breast

COc1ccc2c(c1)c1c3c(ccc4ncn2c43)N(CCN(C)C)CCN=1
TGI [1]: 1.1 µM
TGI [2]: 2.32 µM
TGI [3]: 1.91 µM
TGI [4]: 2.41 µM
TGI [5]: 6.05 µM
TGI [6]: 2.89 µM
TGI [7]: 2.04 µM
TGI [8]: 1.73 µM
TGI [9]: 2.71 µM
TGI [10]: 1.58 µM
TGI [11]: 4.24 µM
TGI [12]: 2.13 µM
TGI [13]: 1.35 µM
TGI [14]: 1.62 µM
TGI [15]: 1.96 µM
TGI [16]: 2.83 µM
TGI [17]: 1.1 µM
TGI [18]: 9.13 µM
TGI [19]: 1.52 µM
TGI [20]: 1.3 µM
TGI [21]: 1.76 µM
TGI [22]: 1.09 µM
TGI [23]: 0.806 µM
TGI [24]: 1.26 µM
TGI [25]: 5.2 µM
TGI [26]: 0.209 µM
TGI [27]: 2.77 µM
TGI [28]: 5.73 µM
TGI [29]: 4.04 µM
TGI [30]: 2.85 µM
TGI [31]: 1.76 µM
TGI [32]: 2.26 µM
TGI [33]: 4.37 µM
TGI [34]: 4.07 µM
TGI [35]: 2.48 µM
TGI [36]: 1.78 µM
TGI [37]: 1.74 µM
TGI [38]: 2.31 µM
TGI [39]: 3.59 µM
TGI [40]: 1.56 µM
TGI [41]: 1.59 µM
TGI [42]: 2.67 µM
TGI [43]: 5.39 µM
TGI [44]: 2.45 µM
TGI [45]: 1.62 µM
TGI [46]: 3.16 µM
TGI [47]: 0.76 µM
TGI [48]: 1.96 µM
TGI [49]: 1.16 µM
TGI [50]: 1.83 µM
TGI [51]: 2.4 µM
TGI [52]: 0.705 µM
TGI [53]: 3.66 µM
TGI [54]: 1.41 µM
TGI [55]: 1.53 µM
TGI [56]: 1.31 µM
TGI [57]: 1.5 µM
TGI [58]: 1.7 µM

Cc1cc(Br)cc(C)c1NC(=O)C(=O)C1C(=O)C(CC2C(=O)c3ccccc3C2=O)C(=O)CC1(C)C (stereo unspecified)
TGI [1]: > 100 µM
TGI [2]: > 100 µM
TGI [3]: > 100 µM
TGI [4]: > 100 µM
TGI [59]: > 100 µM
TGI [6]: > 100 µM
TGI [7]: > 100 µM
TGI [8]: > 100 µM
TGI [9]: > 100 µM
TGI [10]: > 100 µM
TGI [11]: > 100 µM
TGI [12]: > 100 µM
TGI [13]: > 100 µM
TGI [14]: > 100 µM
TGI [15]: > 100 µM
TGI [16]: > 100 µM
TGI [17]: > 100 µM
TGI [18]: > 100 µM
TGI [19]: > 100 µM
TGI [20]: > 100 µM
TGI [21]: > 100 µM
TGI [22]: 95.7 µM
TGI [23]: > 100 µM
TGI [24]: > 100 µM
TGI [25]: > 100 µM
TGI [28]: > 100 µM
TGI [29]: > 100 µM
TGI [30]: > 100 µM
TGI [31]: > 100 µM
TGI [32]: > 100 µM
TGI [33]: > 100 µM
TGI [34]: > 100 µM
TGI [36]: > 100 µM
TGI [37]: 92.7 µM
TGI [38]: > 100 µM
TGI [39]: > 100 µM
TGI [40]: > 100 µM
TGI [41]: > 100 µM
TGI [43]: > 100 µM
TGI [44]: > 100 µM
TGI [45]: > 100 µM
TGI [46]: > 100 µM
TGI [47]: > 100 µM
TGI [48]: > 100 µM
TGI [49]: > 100 µM
TGI [50]: > 100 µM
TGI [51]: > 100 µM
TGI [53]: > 100 µM
TGI [54]: > 100 µM
TGI [55]: > 100 µM
TGI [56]: > 100 µM
TGI [57]: 74.5 µM
TGI [58]: > 100 µM

C[C@]12CC[C@H](O)CC1=CC[C@@H]1[C@@H]2CC[C@]2(C)C(=O)CC[C@@H]12
TGI [2]: > 100 µM
TGI [3]: > 100 µM
TGI [4]: > 100 µM
TGI [59]: > 100 µM
TGI [5]: > 100 µM
TGI [6]: > 100 µM
TGI [7]: > 100 µM
TGI [9]: > 100 µM
TGI [10]: > 100 µM
TGI [11]: > 100 µM
TGI [12]: > 100 µM
TGI [13]: > 100 µM
TGI [14]: > 100 µM
TGI [15]: > 100 µM
TGI [16]: > 100 µM
TGI [17]: > 100 µM
TGI [18]: > 100 µM
TGI [19]: > 100 µM
TGI [20]: > 100 µM
TGI [21]: > 100 µM
TGI [23]: > 100 µM
TGI [24]: > 100 µM
TGI [25]: > 100 µM
TGI [26]: > 100 µM
TGI [28]: > 100 µM
TGI [29]: > 100 µM
TGI [30]: > 100 µM
TGI [32]: > 100 µM
TGI [35]: > 100 µM
TGI [36]: > 100 µM
TGI [37]: > 100 µM
TGI [38]: > 100 µM
TGI [39]: > 100 µM
TGI [40]: > 100 µM
TGI [41]: > 100 µM
TGI [42]: > 100 µM
TGI [43]: > 100 µM
TGI [44]: > 100 µM
TGI [45]: > 100 µM
TGI [46]: 97.9 µM
TGI [48]: > 100 µM
TGI [49]: > 100 µM
TGI [50]: > 100 µM
TGI [51]: > 100 µM
TGI [53]: > 100 µM
TGI [54]: > 100 µM
TGI [55]: > 100 µM
TGI [56]: > 100 µM
TGI [57]: > 100 µM
TGI [58]: > 100 µM

COC(=O)CCc1ccc2c(c1)CC1(C2)Cc2ccc3c(c2C1)CCC3 (stereo unspecified)
TGI [1]: > 100 µM
TGI [3]: > 100 µM
TGI [4]: > 100 µM
TGI [5]: > 100 µM
TGI [6]: > 100 µM
TGI [7]: > 100 µM
TGI [8]: > 100 µM
TGI [9]: > 100 µM
TGI [10]: > 100 µM
TGI [11]: > 100 µM
TGI [12]: > 100 µM
TGI [13]: > 100 µM
TGI [14]: > 100 µM
TGI [15]: > 100 µM
TGI [17]: > 100 µM
TGI [19]: > 100 µM
TGI [20]: > 100 µM
TGI [21]: > 100 µM
TGI [22]: > 100 µM
TGI [23]: > 100 µM
TGI [24]: > 100 µM
TGI [25]: > 100 µM
TGI [26]: > 100 µM
TGI [27]: > 100 µM
TGI [28]: > 100 µM
TGI [29]: > 100 µM
TGI [30]: > 100 µM
TGI [31]: > 100 µM
TGI [32]: > 100 µM
TGI [33]: > 100 µM
TGI [34]: > 100 µM
TGI [35]: > 100 µM
TGI [36]: > 100 µM
TGI [37]: 67.5 µM
TGI [38]: 90.9 µM
TGI [39]: > 100 µM
TGI [40]: > 100 µM
TGI [41]: > 100 µM
TGI [42]: > 100 µM
TGI [43]: > 100 µM
TGI [44]: > 100 µM
TGI [45]: > 100 µM
TGI [46]: > 100 µM
TGI [47]: > 100 µM
TGI [48]: > 100 µM
TGI [49]: > 100 µM
TGI [50]: > 100 µM
TGI [51]: > 100 µM
TGI [52]: > 100 µM
TGI [53]: > 100 µM
TGI [54]: > 100 µM
TGI [55]: > 100 µM
TGI [56]: > 100 µM
TGI [57]: > 100 µM
TGI [58]: > 100 µM
